Source: article PMC10112268, “Inhibition of Human Coronaviruses by Combinations of Host-Targeted and Direct-Acting Antivirals” (Antimicrobial Agents and Chemotherapy, 2023)
Where two headings read alike, the source gives them in different places.

Columns and labels:
[1] = test system: HCoV-229E-GFP; experiment: microbe, parasite or virus in culture; assay type: cell-based; details: for IC50: Human coronavirus 229E
[2] = test system: HCoV-OC43; experiment: microbe, parasite or virus in culture; assay type: cell-based
[3] = test system: SARS-CoV-2 isolate MAD6 (Wuhan-Hu-1 strain); experiment: Virus yield inhibition in infected Calu3 2B4 cells, plaque assay on Vero E6; assay type: cell-based
[4] = test system: SARS-CoV-2 isolate 39896362_AG (omicron strain); experiment: microbe, parasite or virus in culture; assay type: cell-based; details: […], Fig. 1
[5] = test system: HCoV-229E, HCoV-OC43, and SARS-CoV-2; experiment: Antiviral assays, summary over all tested HCoVs; assay type: cell-based, human coronaviruses
[6] = test system: HCoV-229E-GFP; experiment: Time of addition assay; assay type: cell-based; details: for IC50: Human coronavirus 229E, 24 hpi
[7] = test system: HCoV-OC43; experiment: Time of addition assay; assay type: cell-based; details: for IC50: 48 hpi
[8] = test system: SARS-CoV-2 isolate MAD6 (Wuhan-Hu-1 strain); experiment: Time of addition assay; assay type: cell-based; details: for IC50: 24 hpi, read-out: IC50, SARS-CoV-2 production
[9] = test system: HCoV-229E-GFP; assay type: cell-based; details: at 16 μM LG; no drug 3.5 ± 0.6 × 10^6
[10] = test system: HCoV-OC43; assay type: cell-based; details: at 32 μM LG; no drug 3.2 ± 0.2 × 10^6
[11] = test system: SARS-CoV-2 (MAD6); experiment: Drug combination (synergy) study, virus yield in Calu3 2B4, CompuSyn; assay type: cell-based
[12] = test system: HCoV-229E-GFP; experiment: Direct virucidal effect on virus particles; details: 10^5 PFU, 1 h at room temperature; LG 0 to 300 μM, VPA 0 to 300 mM
[13] = test system: HCoV-OC43; experiment: Direct virucidal effect on virus particles; details: 10^5 PFU, 1 h at room temperature; LG 0 to 300 μM, VPA 0 to 300 mM
[14] = test system: SARS-CoV-2; experiment: Direct virucidal effect on virus particles; details: 10^5 PFU, 1 h at room temperature; LG 0 to 300 μM, VPA 0 to 300 mM
[15] = test system: TGEV; experiment: Antiviral effect against TGEV in WSL or ST cells, plaque assay on ST; assay type: cell-based, swine coronavirus TGEV; details: LG in WSL cells, VPA in ST cells
Description: Figure S2. […] The inhibitory effect […]
of LG or VPA was assayed on triplicate cultures of TGEV-infected WSL (wild swine macrophage cell line) or ST (swine testis) cells, respectively. After 1 h-pre-incubation with AVs, triplicate cultures were infected with the corresponding virus, at a MOI of 2 PFU/cell, in a reduced volume of medium containing the AV, for 2h, virus inoculum removed and cells washed twice with medium, before the addition of drug-containing fresh medium (supplemented with 2% FBS). Cultures were then incubated for 24 h at 37 °C; total virus (intracellular and extracellular) production was evaluated by plaque assay on triplicate cultures of ST cells. Left y-axis represents infectious virus progeny at 24 hpi and right y-axis, cell viability determined by MTT assay of each corresponding cell line. IC50 values and SI values […]
[TGEV titers (PFU/ml): 1.1±0.1 x 108 in the absence of the drugs, […]
(1 picture or pasted object on this page, not shown here)

[16] = long-term toxicity studies in rats and mice; cited from earlier work
[17] = in vitro; details: human, CC50 (MTT assay), Huh-7
[18] = in vitro; details: human, CC50 (MTT assay), HCT-8
[19] = in vitro; details: African green monkey
[20] = in vitro; details: human
[21] = test system: FMDV; details: mouse, cited from earlier work

Compound: CCCCCCCCCCCCOC(=O)c1cc(O)c(O)c(O)c1 [LG, lauryl gallate]
- selectivity index (SI=CC50/IC50) [1]: 79.14
- IC50 ([1]; Huh-7, read-out: IC50, virus yield, Huh-7, AV from 1 h before adsorption, 24 hpi, Fig. 1): 1.05 ± 0.3 µM
- IC50 ([1]; Huh-7, read-out: IC50, virus yield, specificity experiment (Fig. 3), Huh-7, 24 hpi): 1.72 µM
- HCoV-229E-GFP titers ([1]; at 100 μM, Fig. 3, no drug 4 ± 0.9 × 10^6): 5 ± 0.2 × 10^2 PFU/mL
- HCoV-229E-GFP titers ([1]; at LG 40 μM, 24 hpi, no drug 3 ± 0.5 × 10^6, Fig. 1): 1.4 ± 0.2 × 10^2 PFU/mL
- selectivity index (SI=CC50/IC50) [2]: 33.74
- IC50 ([2]; Betacoronavirus 1, OC43, Huh-7, read-out: IC50, virus yield, Huh-7, AV from 1 h before adsorption, 48 hpi, Fig. 1): 1.63 ± 0.6 µM
- IC50 ([2]; Betacoronavirus 1, OC43, Huh-7, read-out: IC50, virus yield, specificity experiment (Fig. 3), Huh-7, 48 hpi): 1.14 µM
- HCoV-OC43 titers ([2]; at 100 μM, Fig. 3, no drug 1.8 ± 0.9 × 10^6): 5 ± 0.01 × 10^1 PFU/mL
- HCoV-OC43 titers ([2]; at LG 40 μM, 48 hpi, no drug 3.1 ± 0.9 × 10^6, Fig. 1): 5 ± 0.01 × 10^1 PFU/mL
- IC50 ([3]; Severe acute respiratory syndrome coronavirus 2, Calu-3 2B4, read-out: IC50, virus yield, Calu3 2B4, Wuhan-Hu-1 strain, AV from 1 h before adsorption, 24 hpi, Fig. 1): 2.26 ± 0.5 µM
- SARS-CoV-2 titers ([3]; at 100 μM, Fig. 3, no drug 3.±0.1 × 10^5): 1 ± 0.1 × 10^2 PFU/mL
- SARS-CoV-2 isolate MAD6 titers ([3]; at LG 100 μM, 24 hpi, no drug 3.4 ± 1 × 10^5, Fig. 1): 5 ± 0.01 × 10^1 PFU/mL
- IC50 ([4]; Severe acute respiratory syndrome coronavirus 2, Vero C1008, Vero E6, omicron strain, AV from 1 h before adsorption, read-out: IC50, virus yield): 1.36 ± 0.2 µM
- SARS-CoV-2 isolate 39896362_AG titers ([4]; at LG 64 μM, no drug 1 ± 0.1 × 10^5): 5 ± 0.01 × 10^1 PFU/mL
- SI values for all tested HCoVs [5]: above 30
- IC50 ([5]; average over all tested HCoVs, read-out: average IC50 value): 1.6 µM
- IC50 ([5]; range over tested HCoVs, read-out: IC50 values, range over HCoVs): 1 to 2 µM
- IC50 ([6]; read-out: IC50, HCoV-229E-GFP production, AV added 0 hpi): 1.48 µM
- IC50 ([6]; read-out: IC50, HCoV-229E-GFP production, AV added 2 hpi): 2.05 µM
- IC50 ([6]; read-out: IC50, HCoV-229E-GFP production, AV added −3 hpi (1 h before adsorption)): 1.24 µM
- HCoV-229E-GFP average titers ([6]; at 40 μM LG, average of addition times, no drug 4 ± 0.6 × 10^6): 6 ± 2 × 10^2 PFU/mL
- IC50 ([7]; Betacoronavirus 1, OC43, read-out: IC50, HCoV-OC43 production, AV added 0 hpi): 1.92 µM
- IC50 ([7]; Betacoronavirus 1, OC43, read-out: IC50, HCoV-OC43 production, AV added 2 hpi): 2.97 µM
- IC50 ([7]; Betacoronavirus 1, OC43, read-out: IC50, HCoV-OC43 production, AV added −3 hpi (1 h before adsorption)): 1.79 µM
- HCoV-OC43 average titers ([7]; at 40 μM LG, average of addition times, no drug 3.5 ± 0.5 × 10^6): 5 ± 0.01 × 10^1 PFU/mL
- IC50 ([8]; Severe acute respiratory syndrome coronavirus 2, AV added 0 hpi): 2.9 µM
- IC50 ([8]; Severe acute respiratory syndrome coronavirus 2, AV added 2 hpi): 3.09 µM
- IC50 ([8]; Severe acute respiratory syndrome coronavirus 2, AV added −2 hpi (1 h before adsorption)): 2.72 µM
- SARS-CoV-2 average titers ([8]; at 100 μM LG, average of addition times, no drug 3.4 ± 0.2 × 10^5): 5 ± 0.01 × 10^1 PFU/mL
- HCoV-229E-GFP titers [9]: 5 ± 0.2 × 10^2 PFU/mL
- HCoV-OC43 titers [10]: 2.2 ± 0.2 × 10^3 PFU/mL
- SARS-CoV-2 titers ([11]; at 16 μM LG, no drug 3.2 ± 0.2 × 10^5): 6 ± 0.2 × 10^3 PFU/mL
- average DRI ([11]; for the named drug over its combinations, at Fa = 0.5 to 0.95): 4.25
- direct virucidal effect (change in virus titers) [12]: No decrease in virus titers
- direct virucidal effect (change in virus titers) [13]: No decrease in virus titers
- direct virucidal effect (change in virus titers) [14]: No decrease in virus titers
- inhibition of TGEV multiplication [15]: inhibited the multiplication
- highest dose at which no effects were observed [16]: 1,000 mg kg-1 of feed
- CC50 ([17]; 24 h cell incubation with AV): 83.1 µM
- CC50 ([17]; 48 h cell incubation with AV): 55 µM
- CC50 ([18]; 24 h cell incubation with AV): 55 µM
- CC50 ([18]; 48 h cell incubation with AV): 50.4 µM
- CC50 [19]: 90.9 µM
- CC50 [20]: 124 µM
- toxicity to the animals ([21]; in vivo): not found to be toxic
- in vivo antiviral effect against FMDV [21]: reducing FMDV-induced mortality and viral load in mice
